According to publication PMC2630805, “Anticancer Alkaloid Lamellarins Inhibit Protein Kinases” (Marine Drugs, 2008):

Key:
[1] = target: KDR kinase (h) (VEGFR2) (Homo sapiens, UniProt P35968); assay: CEREP Kinase Selectivity Panel; format: biochemical; settings: 10 μM lamellarin N
[2] = target: GSK-3α/ß; assay: GSK-3α/β kinase assay (GS-1 substrate); format: biochemical, porcine; settings: 15 μM ATP; cell '− (x)' = no inhibitory activity detected, x = highest concentration tested
Excerpt: GSK-3 α/β was purified from porcine brain by affinity chromatography on immobilized axin [39].

[3] = target: IGF1R kinase (h) (Homo sapiens, UniProt P08069); assay: CEREP Kinase Selectivity Panel; format: biochemical; settings: 10 μM lamellarin N
[4] = target: JNK 2 (h) (Homo sapiens, UniProt P45984); assay: CEREP Kinase Selectivity Panel; format: biochemical; settings: 10 μM lamellarin N
[5] = target: p38γ kinase (h) (Homo sapiens, UniProt P53778); assay: CEREP Kinase Selectivity Panel; format: biochemical; settings: 10 μM lamellarin N
[6] = target: FLT-3 kinase (h) (Homo sapiens, UniProt P36888); assay: CEREP Kinase Selectivity Panel; format: biochemical; settings: 10 μM lamellarin N
[7] = target: FGFR2 kinase (h) (Homo sapiens, UniProt P21802); assay: CEREP Kinase Selectivity Panel; format: biochemical; settings: 10 μM lamellarin N
[8] = target: Brk (h) (Homo sapiens, UniProt Q13882); assay: CEREP Kinase Selectivity Panel; format: biochemical; settings: 10 μM lamellarin N
[9] = target: CDK5/p25 (Homo sapiens, UniProt Q00535); assay: CDK5/p25 kinase assay (histone H1)
Description: Blank values were subtracted and activities calculated as pmoles of phosphate incorporated during a 30 min. incubation. The activities were expressed in % of the maximal activity, i.e. in the absence of inhibitors. Controls were performed with appropriate dilutions of dimethylsulfoxide. Unless otherwise stated, the P81 phosphocellulose assay was used.
Its activity was assayed with histone H1 in buffer C as described for CDK1/cyclin B.

[10] = target: Syk (h) (Homo sapiens, UniProt P43405); assay: CEREP Kinase Selectivity Panel; format: biochemical; settings: 10 μM lamellarin N
[11] = target: Fyn kinase (h) (Homo sapiens, UniProt P06241); assay: CEREP Kinase Selectivity Panel; format: biochemical; settings: 10 μM lamellarin N
[12] = target: c-Met kinase (h) (Homo sapiens, UniProt P08581); assay: CEREP Kinase Selectivity Panel; format: biochemical; settings: 10 μM lamellarin N
[13] = target: CHK1 (h) (Homo sapiens, UniProt O14757); assay: CEREP Kinase Selectivity Panel; format: biochemical; settings: 10 μM lamellarin N
[14] = target: CSK (h) (Homo sapiens, UniProt P41240); assay: CEREP Kinase Selectivity Panel; format: biochemical; settings: 10 μM lamellarin N
[15] = target: p38α kinase (h) (Homo sapiens, UniProt Q16539); assay: CEREP Kinase Selectivity Panel; format: biochemical; settings: 10 μM lamellarin N
[16] = target: PKCβ 1 (h) (Homo sapiens, UniProt P05771); assay: CEREP Kinase Selectivity Panel; format: biochemical; settings: 10 μM lamellarin N
[17] = target: ERK2 (h) (P42mapk) (Homo sapiens, UniProt P28482); assay: CEREP Kinase Selectivity Panel; format: biochemical; settings: 10 μM lamellarin N
[18] = tested on: AMPKα; assay: CEREP Kinase Selectivity Panel; format: biochemical; settings: 10 μM lamellarin N
[19] = tested on: human neuroblastoma SH-SY5Y cells; assay: SH-SY5Y cell survival, MTS reduction assay; format: cell-based; settings: read-out: IC50 SH-SY5Y cell survival
Description: We next tested the effects of each lamellarin, at an initial 10 μM concentration, on the survival of the neuroblastoma SH-SY5Y cell line after 48 h exposure (Table 2). Cell survival was estimated by the MTS reduction assay.
SH-SY5Y human neuroblastoma cells were grown in DMEM supplemented with 2mM L-glutamine (Invitrogen, Cergy Pontoise, France), plus antibiotics (penicillin-streptomycin) and a 10% volume of fetal calf serum (FCS) (Invitrogen). Cell viability was determined by means of the MTS (3- (4,5-dimethylthiazol-2-yl)-5- (3-carboxymethoxyphenyl)-2- (4-sulfophenyl)-2H -tetrazolium) reduction method as previously described. Cell death was (also) assayed by LDH release. Lactate dehydrogenase is a stable cytosolic enzyme that is released upon cell lysis. SH-SY5Y cells were also subjected to caspase activity assays. These are based on cleavage of a synthetic caspase substrate DEVD (MP Biomedicals, 199423), a subtrate of active caspase 3/6/7. The assay was carried out according to manufacturer’s instructions.

[20] = target: CHK2 (h) (Homo sapiens, UniProt O96017); assay: CEREP Kinase Selectivity Panel; format: biochemical; settings: 10 μM lamellarin N
[21] = target: FGFR4 kinase (h) (Homo sapiens, UniProt P22455); assay: CEREP Kinase Selectivity Panel; format: biochemical; settings: 10 μM lamellarin N
[22] = target: TRKA (h) (Homo sapiens, UniProt P04629); assay: CEREP Kinase Selectivity Panel; format: biochemical; settings: 10 μM lamellarin N
[23] = target: ROCK2 (h) (Homo sapiens, UniProt O75116); assay: CEREP Kinase Selectivity Panel; format: biochemical; settings: 10 μM lamellarin N
[24] = target: PIM 1 (Homo sapiens, UniProt P11309); assay: PIM1 kinase assay (histone H1); format: biochemical
[25] = target: MEK1/MAP2K1 (h) (Homo sapiens, UniProt Q02750); assay: CEREP Kinase Selectivity Panel; format: biochemical; settings: 10 μM lamellarin N
[26] = target: Ret kinase (h) (Homo sapiens, UniProt P07949); assay: CEREP Kinase Selectivity Panel; format: biochemical; settings: 10 μM lamellarin N
[27] = target: CDK2 (h) (cycE) (Homo sapiens, UniProt P24941); assay: CEREP Kinase Selectivity Panel; format: biochemical; settings: 10 μM lamellarin N
[28] = target: CDC2/CDK1 (h) (cycB) (Homo sapiens, UniProt P06493); assay: CEREP Kinase Selectivity Panel; format: biochemical; settings: 10 μM lamellarin N
[29] = target: PKA (h) (Homo sapiens, UniProt P17612); assay: CEREP Kinase Selectivity Panel; format: biochemical; settings: 10 μM lamellarin N
[30] = target: CaMK2α (h) (Homo sapiens, UniProt Q9UQM7); assay: CEREP Kinase Selectivity Panel; format: biochemical; settings: 10 μM lamellarin N
[31] = target: PKCγ (h) (Homo sapiens, UniProt P05129); assay: CEREP Kinase Selectivity Panel; format: biochemical; settings: 10 μM lamellarin N
[32] = target: EphB4 kinase (h) (Homo sapiens, UniProt P54760); assay: CEREP Kinase Selectivity Panel; format: biochemical; settings: 10 μM lamellarin N
[33] = target: ERK1 (h) (Homo sapiens, UniProt P27361); assay: CEREP Kinase Selectivity Panel; format: biochemical; settings: 10 μM lamellarin N
[34] = target: RSK2 (h) (Homo sapiens, UniProt P51812); assay: CEREP Kinase Selectivity Panel; format: biochemical; settings: 10 μM lamellarin N

JNK 2 (h), sequence (P45984 whole entry): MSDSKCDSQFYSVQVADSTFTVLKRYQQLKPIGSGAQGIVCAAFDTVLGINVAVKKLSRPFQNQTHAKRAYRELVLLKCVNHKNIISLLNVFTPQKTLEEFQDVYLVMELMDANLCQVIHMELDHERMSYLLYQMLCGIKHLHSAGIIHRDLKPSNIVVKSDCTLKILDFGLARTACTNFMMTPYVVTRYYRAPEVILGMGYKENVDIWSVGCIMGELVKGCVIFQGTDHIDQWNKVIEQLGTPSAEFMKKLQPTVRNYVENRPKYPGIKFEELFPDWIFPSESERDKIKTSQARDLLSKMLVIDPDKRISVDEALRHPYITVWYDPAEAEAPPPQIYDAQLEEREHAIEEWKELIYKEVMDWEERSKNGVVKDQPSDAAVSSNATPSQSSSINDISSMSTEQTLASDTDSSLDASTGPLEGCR
ERK1 (h), sequence (P27361 whole entry): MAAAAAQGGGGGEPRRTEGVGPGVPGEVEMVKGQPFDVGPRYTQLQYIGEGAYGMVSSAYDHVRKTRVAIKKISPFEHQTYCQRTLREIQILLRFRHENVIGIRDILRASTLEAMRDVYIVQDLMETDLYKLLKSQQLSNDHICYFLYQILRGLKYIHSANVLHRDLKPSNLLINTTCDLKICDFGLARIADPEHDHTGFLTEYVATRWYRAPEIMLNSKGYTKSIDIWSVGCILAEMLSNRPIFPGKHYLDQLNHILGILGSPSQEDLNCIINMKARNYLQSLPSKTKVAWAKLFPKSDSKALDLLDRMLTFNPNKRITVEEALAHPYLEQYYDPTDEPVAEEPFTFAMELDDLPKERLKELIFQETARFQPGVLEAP
ROCK2 (h), sequence (O75116 whole entry): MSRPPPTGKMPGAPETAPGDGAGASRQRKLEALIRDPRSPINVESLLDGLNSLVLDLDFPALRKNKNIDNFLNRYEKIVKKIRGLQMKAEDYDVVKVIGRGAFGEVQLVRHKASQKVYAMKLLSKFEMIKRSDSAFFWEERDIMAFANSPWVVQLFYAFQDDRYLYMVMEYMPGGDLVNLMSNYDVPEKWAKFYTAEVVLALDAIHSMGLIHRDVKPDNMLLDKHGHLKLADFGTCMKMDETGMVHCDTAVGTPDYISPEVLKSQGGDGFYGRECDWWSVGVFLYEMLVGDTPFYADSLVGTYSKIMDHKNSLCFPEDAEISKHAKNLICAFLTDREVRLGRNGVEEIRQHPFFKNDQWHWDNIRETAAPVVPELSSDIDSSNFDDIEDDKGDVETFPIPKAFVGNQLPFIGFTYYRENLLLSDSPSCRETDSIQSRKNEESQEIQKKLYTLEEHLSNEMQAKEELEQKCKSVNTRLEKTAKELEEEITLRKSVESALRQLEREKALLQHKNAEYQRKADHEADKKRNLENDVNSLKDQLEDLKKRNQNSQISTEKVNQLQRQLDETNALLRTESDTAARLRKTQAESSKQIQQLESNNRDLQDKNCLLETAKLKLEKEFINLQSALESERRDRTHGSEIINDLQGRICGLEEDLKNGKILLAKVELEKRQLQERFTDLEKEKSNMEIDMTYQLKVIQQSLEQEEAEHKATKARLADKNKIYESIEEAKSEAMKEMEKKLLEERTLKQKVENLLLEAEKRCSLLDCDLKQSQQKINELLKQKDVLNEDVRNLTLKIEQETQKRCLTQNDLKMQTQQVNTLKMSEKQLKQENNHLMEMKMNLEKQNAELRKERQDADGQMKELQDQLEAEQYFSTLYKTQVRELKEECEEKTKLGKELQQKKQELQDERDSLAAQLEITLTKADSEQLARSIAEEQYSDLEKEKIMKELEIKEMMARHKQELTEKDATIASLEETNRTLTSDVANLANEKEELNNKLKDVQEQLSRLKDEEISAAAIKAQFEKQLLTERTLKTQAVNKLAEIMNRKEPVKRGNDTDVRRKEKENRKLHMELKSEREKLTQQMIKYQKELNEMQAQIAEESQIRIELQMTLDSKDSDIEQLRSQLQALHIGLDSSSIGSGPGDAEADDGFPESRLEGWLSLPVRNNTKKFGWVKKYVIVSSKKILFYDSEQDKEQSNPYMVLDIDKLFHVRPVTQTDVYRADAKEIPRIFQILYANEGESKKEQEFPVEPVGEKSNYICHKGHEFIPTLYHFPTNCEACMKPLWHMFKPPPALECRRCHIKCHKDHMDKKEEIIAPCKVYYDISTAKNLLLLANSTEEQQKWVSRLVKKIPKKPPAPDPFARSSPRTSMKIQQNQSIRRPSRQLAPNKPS
Fyn kinase (h), sequence (P06241 whole entry): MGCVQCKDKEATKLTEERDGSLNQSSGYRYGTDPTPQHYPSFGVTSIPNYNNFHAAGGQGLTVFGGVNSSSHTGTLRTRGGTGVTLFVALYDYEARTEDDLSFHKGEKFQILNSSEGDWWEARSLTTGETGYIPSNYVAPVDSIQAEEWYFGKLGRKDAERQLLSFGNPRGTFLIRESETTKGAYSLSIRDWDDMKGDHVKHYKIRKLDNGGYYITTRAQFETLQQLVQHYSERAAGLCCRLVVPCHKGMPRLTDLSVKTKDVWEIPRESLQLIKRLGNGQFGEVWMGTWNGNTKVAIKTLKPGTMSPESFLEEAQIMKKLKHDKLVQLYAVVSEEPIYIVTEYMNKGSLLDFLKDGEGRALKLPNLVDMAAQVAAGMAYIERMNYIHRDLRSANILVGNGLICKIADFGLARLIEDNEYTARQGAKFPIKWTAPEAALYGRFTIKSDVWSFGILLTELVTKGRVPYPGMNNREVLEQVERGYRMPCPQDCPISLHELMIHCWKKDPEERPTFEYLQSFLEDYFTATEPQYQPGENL
FLT-3 kinase (h), sequence (P36888 27-993): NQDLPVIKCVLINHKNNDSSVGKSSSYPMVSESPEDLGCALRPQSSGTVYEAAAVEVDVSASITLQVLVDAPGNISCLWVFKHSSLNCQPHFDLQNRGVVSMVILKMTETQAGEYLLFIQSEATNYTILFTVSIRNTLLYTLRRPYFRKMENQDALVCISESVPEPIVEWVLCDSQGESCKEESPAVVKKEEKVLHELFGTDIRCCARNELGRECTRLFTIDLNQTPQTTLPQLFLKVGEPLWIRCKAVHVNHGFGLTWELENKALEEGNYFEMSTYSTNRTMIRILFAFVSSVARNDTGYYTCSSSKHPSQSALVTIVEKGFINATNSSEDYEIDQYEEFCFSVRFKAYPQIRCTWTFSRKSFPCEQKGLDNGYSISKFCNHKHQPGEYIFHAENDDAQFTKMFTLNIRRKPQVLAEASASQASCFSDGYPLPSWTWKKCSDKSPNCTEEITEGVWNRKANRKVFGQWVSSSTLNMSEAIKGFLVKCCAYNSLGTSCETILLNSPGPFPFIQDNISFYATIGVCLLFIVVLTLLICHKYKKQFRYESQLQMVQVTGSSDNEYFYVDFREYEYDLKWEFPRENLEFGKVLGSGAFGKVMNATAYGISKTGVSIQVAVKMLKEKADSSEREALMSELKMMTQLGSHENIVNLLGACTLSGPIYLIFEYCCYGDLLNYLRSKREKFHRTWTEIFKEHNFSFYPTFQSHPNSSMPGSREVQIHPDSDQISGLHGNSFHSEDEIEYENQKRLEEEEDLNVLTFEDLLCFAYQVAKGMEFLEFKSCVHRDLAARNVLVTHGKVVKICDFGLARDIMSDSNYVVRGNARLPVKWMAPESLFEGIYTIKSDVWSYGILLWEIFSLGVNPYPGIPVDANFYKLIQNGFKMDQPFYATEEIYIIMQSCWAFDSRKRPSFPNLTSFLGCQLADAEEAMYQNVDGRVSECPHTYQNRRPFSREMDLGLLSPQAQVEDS
CDK5/p25, sequence (Q00535 whole entry): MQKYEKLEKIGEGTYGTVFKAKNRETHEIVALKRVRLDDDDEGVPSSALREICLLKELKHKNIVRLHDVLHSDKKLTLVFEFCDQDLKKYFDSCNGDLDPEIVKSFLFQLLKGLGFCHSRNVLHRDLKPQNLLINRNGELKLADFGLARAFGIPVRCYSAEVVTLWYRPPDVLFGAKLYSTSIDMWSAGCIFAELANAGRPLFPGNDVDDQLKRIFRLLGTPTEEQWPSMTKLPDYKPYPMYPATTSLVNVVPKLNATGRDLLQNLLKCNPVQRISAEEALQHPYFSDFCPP
CDK5/p25, sequence (Q15078 99-307 partner limits assumed): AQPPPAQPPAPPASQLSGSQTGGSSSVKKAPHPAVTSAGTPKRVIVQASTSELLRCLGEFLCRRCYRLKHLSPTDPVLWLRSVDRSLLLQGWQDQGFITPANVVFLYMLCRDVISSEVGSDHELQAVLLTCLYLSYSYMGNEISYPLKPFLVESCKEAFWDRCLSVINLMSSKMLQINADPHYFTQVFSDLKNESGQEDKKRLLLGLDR
p38α kinase (h), sequence (Q16539 whole entry): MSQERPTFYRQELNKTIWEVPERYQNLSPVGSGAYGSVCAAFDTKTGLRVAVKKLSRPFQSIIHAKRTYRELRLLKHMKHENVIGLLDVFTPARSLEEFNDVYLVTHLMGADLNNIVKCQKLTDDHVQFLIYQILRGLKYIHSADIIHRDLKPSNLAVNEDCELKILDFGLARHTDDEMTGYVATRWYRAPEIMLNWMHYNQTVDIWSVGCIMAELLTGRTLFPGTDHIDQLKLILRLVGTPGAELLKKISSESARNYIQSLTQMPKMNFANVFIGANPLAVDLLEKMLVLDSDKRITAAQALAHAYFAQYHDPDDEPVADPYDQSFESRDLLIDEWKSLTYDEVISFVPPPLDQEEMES
ERK2 (h) (P42mapk), sequence (P28482 whole entry): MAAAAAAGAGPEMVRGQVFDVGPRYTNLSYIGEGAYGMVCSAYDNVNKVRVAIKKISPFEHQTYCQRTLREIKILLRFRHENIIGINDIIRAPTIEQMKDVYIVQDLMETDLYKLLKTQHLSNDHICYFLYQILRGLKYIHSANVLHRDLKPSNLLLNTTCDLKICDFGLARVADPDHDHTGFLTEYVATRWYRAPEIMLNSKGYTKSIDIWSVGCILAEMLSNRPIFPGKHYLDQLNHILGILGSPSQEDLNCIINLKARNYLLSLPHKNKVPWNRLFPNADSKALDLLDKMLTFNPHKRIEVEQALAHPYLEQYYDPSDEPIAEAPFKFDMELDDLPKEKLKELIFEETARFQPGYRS

COc1ccc(-c2c3c4cc(OC)c(O)cc4oc(=O)c3n3ccc4cc(O)c(OC)cc4c23)cc1O [Compound 6, lamellarin N]
Activity (% of control) [1]: 7.4 % of control
IC50 [2]: 5 nM
Activity (% of control) [3]: 87.2 % of control
Activity (% of control) [4]: 15.7 % of control
Activity (% of control) [5]: 79.6 % of control
Activity (% of control) [6]: 0.4 % of control
Activity (% of control) [7]: 19.8 % of control
Activity (% of control) [8]: 72.8 % of control
IC50 [9]: 25 nM
Activity (% of control) [10]: 97.1 % of control
Activity (% of control) [11]: 20.1 % of control
Activity (% of control) [12]: 92.1 % of control
Activity (% of control) [13]: 93.3 % of control
Activity (% of control) [14]: 47.4 % of control
Activity (% of control) [15]: 97.4 % of control
Activity (% of control) [16]: 102.0 % of control
Activity (% of control) [17]: 79.9 % of control
Activity (% of control) [18]: 42.4 % of control
IC50 [19]: 25 nM
Activity (% of control) [20]: 47.6 % of control
Activity (% of control) [21]: 62.5 % of control
Activity (% of control) [22]: 0.8 % of control
Activity (% of control) [23]: 103.3 % of control
IC50 [24]: 55 nM
Activity (% of control) [25]: 81.5 % of control
Activity (% of control) [26]: 1.8 % of control
Activity (% of control) [27]: 57.1 % of control
Activity (% of control) [28]: 20.4 % of control
Activity (% of control) [29]: 80.0 % of control
Activity (% of control) [30]: 38.2 % of control
Activity (% of control) [31]: 94.1 % of control
Activity (% of control) [32]: 89.7 % of control
Activity (% of control) [33]: 94.1 % of control
Activity (% of control) [34]: 44.5 % of control
